# Publication PMC8286840, “Identifying SARS-CoV-2 antiviral compounds by screening for small molecule inhibitors of Nsp3 papain-like protease” (Biochemical Journal, 2021)
# Counter-ions that a name gives are not always drawn. Like-named read-outs stand apart in the source and are kept apart here. Where a SMILES comes first, the peptide text is derived from it. [ ]: non-standard residue; d: D form. The star is where a group is joined. Dolaproine = CO[C@@H]([C@@H]1CCCN1)[C@@H](C)C(=O)O; Hexanoyl(6-maleimido) = O=C1C=CC(=O)N1CCCCCC(=O)*; Dil = CC[C@H](C)[C@H](NC)[C@@H](CC(=O)O)OC; NMeV = CN[C@H](C(=O)O)C(C)C; Cbz = O=C(OCc1ccccc1)*; Hexanoyl = CCCCCC(=O)*; Ahx = NCCCCCC(=O)O; CH2F = FC*
# Legend:
# [1] = biological target: T1, SARS-CoV-2 PLpro (nsp3 1564–1878) (Severe acute respiratory syndrome coronavirus 2, UniProt P0DTD1); assay: biochemical; parameters: FRET-quenched peptide (Pro3) cleavage by PLpro, 10 min pre-incubation, slope over 20 min, normalised to no-compound control; conditions: low concentration screen, read-out: % of control remaining
# [2] = biological target: T1, SARS-CoV-2 PLpro (nsp3 1564–1878); assay: biochemical; parameters: FRET-quenched peptide (Pro3) cleavage by PLpro, 10 min pre-incubation, slope over 20 min, normalised to no-compound control; conditions: high concentration screen, read-out: % of control remaining
smiles,measurement,setting,value
C#C[C@]1(OC(C)=O)CC[C@H]2[C@@H]3CCC4=C[C@@H](OC(C)=O)CC[C@@H]4[C@H]3CC[C@@]21C [Ethynodiol diacetate],remaining activity at 1.25 µM,[1]; Well no.=5373,92.3%
same,remaining activity at 3.75 µM,[2]; Well no.=5373,92.2%
C#CCN1C(C)=C(C(=O)OC)C(c2cccc([N+](=O)[O-])c2)C(C(=O)OCC)=C1C (stereo not drawn) [MRS 1845],remaining activity at 1.25 µM,[1]; Well no.=968,95.8%
same,remaining activity at 3.75 µM,[2]; Well no.=968,96.5%
"C=C1C=C(C)n2nc(CC3C(=O)C[C@](CCc4cc(CC)nc(CC)c4)(C4CCCC4)OC3=O)nc2N1 (stereo partly drawn) [(6R)-6-cyclopentyl-6-(2-(2,6-diethylpyridin-4-yl)ethyl)-3-((7-methyl-5-methylene-4,5-dihydro-[1,2,4]triazolo[1,5-a]pyrimidin-2-yl)methyl)dihydro-2H-pyran-2,4(3H)-dione]",remaining activity at 1.25 µM,[1]; Well no.=5607,102%
same,remaining activity at 3.75 µM,[2]; Well no.=5607,105%
CC[C@H](C)[C@@H]([C@@H](CC(=O)N1CCC[C@H]1[C@H](OC)[C@@H](C)C(=O)N[C@@H](Cc1ccccc1)C(=O)O)OC)N(C)C(=O)[C@@H](NC(=O)[C@H](C(C)C)N(C)C(=O)CCCCCN1C(=O)C=CC1=O)C(C)C [McMMAF] ({Hexanoyl(6-maleimido)}-[NMeV]V[Dil][Dolaproine]F-OH),remaining activity at 1.25 µM,[1]; Well no.=7742,97.3%
same,remaining activity at 3.75 µM,[2]; Well no.=7742,101%
O=C(O)/C=C/c1ccc(-c2ccc(O)c(C34CC5CC(CC(C5)C3)C4)c2)cc1 [Adarotene],remaining activity at 1.25 µM,[1]; Well no.=6342,101%
same,remaining activity at 3.75 µM,[2]; Well no.=6342,99%
COc1cc2ncnc(Nc3ccc(NC(=O)c4ccccc4)cc3)c2cc1OC [Aurora Kinase Inhibitor II],remaining activity at 1.25 µM,[1]; Well no.=2321,99.4%
same,remaining activity at 3.75 µM,[2]; Well no.=2321,99.9%
Cc1ccccc1N1CCN(CCc2nnc3n2CCCC3)CC1 [Dapiprazole (hydrochloride)],remaining activity at 1.25 µM,[1]; Well no.=6895,97.8%
same,remaining activity at 3.75 µM,[2]; Well no.=6895,100%
Cc1ccc(NC(=S)NNc2c([N+](=O)[O-])cc(C(F)(F)F)cc2[N+](=O)[O-])cc1Cl [Kobe0065],remaining activity at 1.25 µM,[1]; Well no.=7436,103%
same,remaining activity at 3.75 µM,[2]; Well no.=7436,106%
CC[C@@H]1/C=C/C=C/C[C@H](C)[C@H](O)[C@](C)(O)C(=O)[C@H](C)[C@@H](O)[C@H](C)C(=O)[C@H](C)[C@@H](O)[C@H](C)/C=C/C(=O)O[C@H]2[C@@H](C)[C@@H](CC1)O[C@@]1(CC[C@@H](C)[C@@H](C[C@H](C)O)O1)[C@@H]2C [Oligomycin A],remaining activity at 1.25 µM,[1]; Well no.=850,105%
same,remaining activity at 1.25 µM,[1]; Well no.=3423,98.1%
same,remaining activity at 3.75 µM,[2]; Well no.=850,103%
same,remaining activity at 3.75 µM,[2]; Well no.=3423,96.5%
C[C@H]1COc2c(C3(N)CC3)c(F)cc3c(=O)c(C(=O)O)cn1c23 [Pazufloxacin],remaining activity at 1.25 µM,[1]; Well no.=2095,97.7%
same,remaining activity at 3.75 µM,[2]; Well no.=2095,98.2%
"CC/C=C\C/C=C\C/C=C\C/C=C\CCCCC(=O)O [6(Z), 9(Z), 12(Z), 15(Z)-Octadecatetraenoic acid]",remaining activity at 1.25 µM,[1]; Well no.=4398,101%
same,remaining activity at 3.75 µM,[2]; Well no.=4398,97.4%
O=C(N[C@H]1CN2CCC1CC2)c1c[nH]c2ccsc2c1=O [MKC-733],remaining activity at 1.25 µM,[1]; Well no.=5899,105%
same,remaining activity at 3.75 µM,[2]; Well no.=5899,108%
Cc1nc2n(c(=O)c1CCN1CCC(c3noc4cc(F)ccc34)CC1)CCCC2O (stereo not drawn) [Paliperidone],remaining activity at 1.25 µM,[1]; Well no.=8197,109%
same,remaining activity at 3.75 µM,[2]; Well no.=8197,99.6%
N#CC[C@H](C1CCCC1)n1cc(-c2ncnc3[nH]ccc23)cn1 [Ruxolitinib (INCB018424)],remaining activity at 1.25 µM,[1]; Well no.=4805,103%
same,remaining activity at 3.75 µM,[2]; Well no.=4805,104%
COc1ccc(C(=O)c2c(C)n(CCN3CCOCC3)c3cc(I)ccc23)cc1 [AM630],remaining activity at 1.25 µM,[1]; Well no.=5463,103%
same,remaining activity at 1.25 µM,[1]; Well no.=7903,98.5%
same,remaining activity at 3.75 µM,[2]; Well no.=5463,107%
same,remaining activity at 3.75 µM,[2]; Well no.=7903,106%
COC(=O)C[C@H](NC(=O)[C@H](C)NC(=O)[C@@H](NC(=O)OCc1ccccc1)C(C)C)C(=O)CF [Z-VAD(OMe)-FMK] (Cbz-Val-Ala-Asp(OMe)-CH2F),remaining activity at 1.25 µM,[1]; Well no.=7116,101%
same,remaining activity at 1.25 µM,[1]; Well no.=8598,100%
same,remaining activity at 3.75 µM,[2]; Well no.=7116,94.5%
same,remaining activity at 3.75 µM,[2]; Well no.=8598,100%
CCN(CC)CCCC(C)Nc1cc(/C=C/c2ccccc2Cl)nc2cc(Cl)ccc12 (stereo not drawn) [XIB4035],remaining activity at 1.25 µM,[1]; Well no.=5692,89%
same,remaining activity at 3.75 µM,[2]; Well no.=5692,89.5%
Cc1ccc(OCCSc2ncccn2)c(Br)c1 [2-{[2-(2-bromo-4-methylphenoxy)ethyl]sulfanyl}pyrimidine],remaining activity at 1.25 µM,[1]; Well no.=6035,95.4%
same,remaining activity at 3.75 µM,[2]; Well no.=6035,94.6%
CC[C@@H]1C(=O)OC[C@@H]1Cc1cncn1C [Pilocarpine.HCl],remaining activity at 1.25 µM,[1]; Well no.=1793,98.6%
same,remaining activity at 1.25 µM,[1]; Well no.=3729,101%
same,remaining activity at 3.75 µM,[2]; Well no.=1793,98.6%
same,remaining activity at 3.75 µM,[2]; Well no.=3729,105%
Cc1c(-c2ccccc2)oc2c(C(=O)OCCN3CCCCC3)cccc2c1=O [Flavoxate (hydrochloride)],remaining activity at 1.25 µM,[1]; Well no.=6803,94.8%
same,remaining activity at 3.75 µM,[2]; Well no.=6803,94.8%
O=C(O)COCCN1CCN(C(c2ccccc2)c2ccc(Cl)cc2)CC1 (stereo not drawn) [Cetirizine 2HCl],remaining activity at 1.25 µM,[1]; Well no.=1712,96.2%
same,remaining activity at 3.75 µM,[2]; Well no.=1712,98.8%
C[C@]12C=CC(=O)C=C1CC[C@@H]1C2=CC[C@]2(C)[C@@H](C(=O)CN3CCN(c4cc(N5CCCC5)nc(N5CCCC5)n4)CC3)CC[C@@H]12 [U-74389G maleate],remaining activity at 1.25 µM,[1]; Well no.=1236,104%
same,remaining activity at 3.75 µM,[2]; Well no.=1236,106%
CCCCCC(=O)N[C@@H](Cc1ccc(O)cc1)C(=O)N[C@H](C(=O)NCCCCCC(N)=O)[C@@H](C)CC [Dihexa] (Hexanoyl-Tyr-Ile-[Ahx]-NH2),remaining activity at 1.25 µM,[1]; Well no.=8646,98.6%
same,remaining activity at 3.75 µM,[2]; Well no.=8646,98.4%
Nc1ccn([C@H]2C[C@H](O)[C@@H](CO)O2)c(=O)n1 [2'-Deoxycytidine],remaining activity at 1.25 µM,[1]; Well no.=7451,93.9%
same,remaining activity at 1.25 µM,[1]; Well no.=7760,96.4%
same,remaining activity at 3.75 µM,[2]; Well no.=7451,93.7%
same,remaining activity at 3.75 µM,[2]; Well no.=7760,98.4%
CCCCCCCCCCCCCCCCOC[C@H](CO)OC [1-Hexadecyl-2-O-methyl-glycerol],remaining activity at 1.25 µM,[1]; Well no.=4572,97.5%
same,remaining activity at 3.75 µM,[2]; Well no.=4572,99.2%
O=c1ccn([C@H]2C[C@H](O)[C@@H](CO)O2)c(=O)[nH]1 [2'-Deoxyuridine],remaining activity at 1.25 µM,[1]; Well no.=6627,107%
same,remaining activity at 1.25 µM,[1]; Well no.=8893,103%
same,remaining activity at 3.75 µM,[2]; Well no.=6627,102%
same,remaining activity at 3.75 µM,[2]; Well no.=8893,103%
Cc1ccccc1/C=C/C1=NCCN1 [Metrazoline oxalate],remaining activity at 1.25 µM,[1]; Well no.=1074,88.9%
same,remaining activity at 3.75 µM,[2]; Well no.=1074,89.7%
O=c1[nH]c2ccccc2n1CCCN1CCC(n2c(=O)[nH]c3cc(Cl)ccc32)CC1 [Domperidone],remaining activity at 1.25 µM,[1]; Well no.=496,107%
same,remaining activity at 1.25 µM,[1]; Well no.=1598,96.5%
same,remaining activity at 1.25 µM,[1]; Well no.=7485,94%
same,remaining activity at 3.75 µM,[2]; Well no.=496,104%
same,remaining activity at 3.75 µM,[2]; Well no.=1598,99.4%
same,remaining activity at 3.75 µM,[2]; Well no.=7485,89.8%
